Reference: US20220264878A1, “HERBICIDAL COMPOSITION CONTAINING R-TYPE PYRIDYLOXY CARBOXYLIC ACID DERIVATIVE AND USE THEREOF” (Qingdao Kingagroot Chemical Compound Co., Ltd., priority 2019, published 2022)

Assays:
Assay type in all cases: in vivo
Veronica didyma = experiment: Post-emergence foliage spray, pot culture, fresh weight inhibition (Tables 151-206; 20 days)
Description: (§1) Table 151-206: Digitaria sanguinalis, Amaranthus retroflexus, Conyza Canadensis, Capsella bursa-pastoris, Eleusine indica were collected in Huangdao of Shandong Province, Sinapis arvensis were collected in Sixian of Anhui Province, Alopecurus japonicus were collected in Tianchang of Anhui Province, Veronica didyma were collected in Siyang of Jiangsu Province.
(§2) The above weeds were cultivated by a pot culture method. […] Full and uniform weed seeds were selected, soaked in warm water at 25° C. for 6 hours, and germinated in a 28° C. biochemical incubator (darkness). The weed seeds that had just germinatedwere evenly placed on the surface of the soil and then covered with 0.5-1 cm soil according to the sizes of seeds.
(§3) The culture was carried out in a controllable sunlight greenhouse at 20 to 30° C., in natural light, and relative humidity of 57% to 72%.
(§4) The technical materials were all dissolved in acetone, and diluted with an aqueous solution containing 0.1% emulsifier Tween-80. The dilution is performed as required.
(§5) A ratio of the active ingredient A to the active ingredient B and amounts thereof in each group depends on the characteristics and toxicity of the two agents, as well as the main application purpose of a corresponding formulation. Based on the pre-tests in this study, the dosage of the active ingredient A and B applied alone and in combination were shown in the tables. Water containing the solvent and emulsifier same with the above groups but free of the agents was used as a blank control.
(§6) Table 1-48, 51-98, 101-148, 151-206: […] per treatment, that is, a total of 60 weeds were treated in one treatment.
(§7) Table 151-206: The agents were used for only once in the experiment. In the stage of weeds with 3˜4 leaves, the weeds were thinned out to maintain 15 weeds per pot and 45 weeds for each treatment, then continued to be cultured to 4˜5 leaves stage of grassy weeds, 5˜6 leaves stage of broadleaf weeds, and treated.
(§8) The well-cultured weeds were evenly placed on a platform with an area of 0.5 m^2, and a solution of agents was sprayed on the stems and leaves thereof by the 3WP-2000-type walking spray tower at a dosage of 450 kg/ha and at a spray pressure of 0.3 MPa. After all the solution was sprayed, the valve was closed. After 30 seconds, the door of the spray tower was opened, and the nutritional bowl was taken out. Then the valve was opened, and the spray tube was cleaned by spraying 50 ml of water.
(§9) A pot-culture method was employed. For the cultivation of weeds, please refer to the Section 1.1), and “Pesticide guidelines for laboratory bioactivity tests—herbicides”. As to a method for applying agents, please refer to the section 2.3.2), that is, a foliage treatment was employed. After the treatment, the weeds were routinely cultured in a greenhouse.
(§10) A method for investigating absolute number was employed, wherein whole seedlings of survival weeds were cut off with a blade along the soil surface, and the fresh weight of the weeds was weighed with an analytical balance. For dead weeds, the fresh weight thereof was zero.
(§11) Table 151-206: The investigation was performed after 20 days of the treatment for only once.
(§12) Theoretical fresh weight inhibition rate of a combination of two active ingredients in each group was calculated by the Gowing method (E0=X+Y−X*Y/100), and then compared with an actually measured inhibition rate (E), thereby effect of the combination (hereafter referred to as combined effect) on weeds was evaluated: the value of E-E0, which was greater than 10%, corresponded to a synergistic effect, the value of E-E0, which was less than −10%, corresponded to an antagonistic effect, and the value of E-E0, which was from −10% to 10%, corresponded to an additional effect.

Chenopodium album = experiment: Post-emergence foliage spray, pot culture, fresh weight inhibition (Tables 1-48, 51-98, 101-148; 24 days); conditions: Table 96
Method in brief: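 Pot-grown weeds were thinned to 15 per pot (45 per treatment) and sprayed on foliage at the 5–6-leaf stage for grasses or the 6–7-leaf stage for broadleaves. Agents were dissolved in acetone with 0.1% Tween-80 and applied at 450 kg/ha spray volume and 0.3 MPa. Plants were then kept in a greenhouse. Above-ground fresh weight of survivors, with dead plants counted as zero, gave inhibition versus a solvent/emulsifier blank.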

Acalypha australis = experiment: as above
Method in brief: (§13)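 Greenhouse pot plants (20–30 °C, natural light, 57–72% RH) were sprayed once on foliage at 450 kg/ha and 0.3 MPa, at the 5–6-leaf (grass) or 6–7-leaf (broadleaf) stage. Compounds were in acetone diluted with 0.1% Tween-80 water. Surviving shoots were weighed at 24 days; dead plants counted as zero.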

Amaranthus retroflexus = experiment: as above
Method in brief: as §13

Solanum nigrum = experiment: as above
Method in brief: as §13

[1] = test system: Veronica persica^2 (collected in Zhumadian of Henan Province); experiment: as above; conditions: Table 88
Method in brief: as §13

Conyza Canadensis = experiment: Post-emergence foliage spray, pot culture, fresh weight inhibition (Tables 151-206; 20 days)
Description: as §1, §2, §3, §4, §5, §6, §7, §8, §9, §10, §11, §12

[2] = B alone 75 g a.i./ha, 20 days after treatment
[3] = B alone 150 g a.i./ha, 20 days after treatment
[4] = B alone 300 g a.i./ha, 20 days after treatment
[5] = B alone 600 g a.i./ha, 20 days after treatment

c1cc[n+]2c(c1)-c1cccc[n+]1CC2 [diquat Dibromide monohydrate]
Control effect (%) of B applied alone in corresponding dose (Veronica didyma; B 75 g a.i./ha, 20 days): 5.5%
Control effect (%) of B applied alone in corresponding dose (Veronica didyma; B 150 g a.i./ha, 20 days): 12.6%
Control effect (%) of B applied alone in corresponding dose (Veronica didyma; B 300 g a.i./ha, 20 days): 41.3%
Control effect (%) of B applied alone in corresponding dose (Veronica didyma; B 600 g a.i./ha, 20 days): 80.4%
Control effect (%) of B applied alone in corresponding dose (Veronica didyma; [2]): 5.5%
Control effect (%) of B applied alone in corresponding dose (Veronica didyma; [3]): 12.6%
Control effect (%) of B applied alone in corresponding dose (Veronica didyma; [4]): 41.3%
Control effect (%) of B applied alone in corresponding dose (Veronica didyma; [5]): 80.4%

C#CCN1C(=O)COc2cc(F)c(N3C(=O)C4=C(CCCC4)C3=O)cc21 [flumioxazin]
Control effect (%) of B applied alone in corresponding dose (Chenopodium album; 7.5 g a.i./ha): 3.4%
Control effect (%) of B applied alone in corresponding dose (Chenopodium album; 15 g a.i./ha): 12.8%
Control effect (%) of B applied alone in corresponding dose (Chenopodium album; 30 g a.i./ha): 37.3%
Control effect (%) of B applied alone in corresponding dose (Chenopodium album; 60 g a.i./ha): 78.8%
Control effect (%) of B applied alone in corresponding dose (Acalypha australis; B 7.5 g a.i./ha): 6.9%
Control effect (%) of B applied alone in corresponding dose (Acalypha australis; B 15 g a.i./ha): 13.7%
Control effect (%) of B applied alone in corresponding dose (Acalypha australis; B 30 g a.i./ha): 39.0%
Control effect (%) of B applied alone in corresponding dose (Acalypha australis; B 60 g a.i./ha): 79.3%
Control effect (%) of B applied alone in corresponding dose (Amaranthus retroflexus; flumioxazin 7.5 g a.i./ha): 5.5%
Control effect (%) of B applied alone in corresponding dose (Amaranthus retroflexus; flumioxazin 15 g a.i./ha): 12.4%
Control effect (%) of B applied alone in corresponding dose (Amaranthus retroflexus; flumioxazin 30 g a.i./ha): 37.4%
Control effect (%) of B applied alone in corresponding dose (Amaranthus retroflexus; flumioxazin 60 g a.i./ha): 78.9%

O=C1C(Cl)C(CCl)CN1c1cccc(C(F)(F)F)c1 (stereo not drawn) [flurochloridone]
Control effect (%) of B applied alone in corresponding dose (Solanum nigrum; B 75 g a.i./ha): 5.5%
Control effect (%) of B applied alone in corresponding dose (Solanum nigrum; B 150 g a.i./ha): 13.7%
Control effect (%) of B applied alone in corresponding dose (Solanum nigrum; B 300 g a.i./ha): 45.8%
Control effect (%) of B applied alone in corresponding dose (Solanum nigrum; B 600 g a.i./ha): 79.7%
Control effect (%) of B applied alone in corresponding dose ([1]; 75 g a.i./ha): 2.1%
Control effect (%) of B applied alone in corresponding dose ([1]; 150 g a.i./ha): 12.3%
Control effect (%) of B applied alone in corresponding dose ([1]; 300 g a.i./ha): 44.5%
Control effect (%) of B applied alone in corresponding dose ([1]; 600 g a.i./ha): 79.6%

C[n+]1ccc(-c2cc[n+](C)cc2)cc1 [paraquat dichloride]
Control effect (%) of B applied alone in corresponding dose (Conyza Canadensis; B 75 g a.i./ha, 20 days): 3.2%
Control effect (%) of B applied alone in corresponding dose (Conyza Canadensis; B 150 g a.i./ha, 20 days): 17.2%
Control effect (%) of B applied alone in corresponding dose (Conyza Canadensis; B 300 g a.i./ha, 20 days): 47.9%
Control effect (%) of B applied alone in corresponding dose (Conyza Canadensis; B 600 g a.i./ha, 20 days): 75.2%
Control effect (%) of B applied alone in corresponding dose (Conyza Canadensis; [2]): 3.2%
Control effect (%) of B applied alone in corresponding dose (Conyza Canadensis; [3]): 17.2%
Control effect (%) of B applied alone in corresponding dose (Conyza Canadensis; [4]): 47.9%
Control effect (%) of B applied alone in corresponding dose (Conyza Canadensis; [5]): 75.2%
